Source: PMC7333355, “Functional and Regulatory Characterization of Three AMTs in Maize Roots” (Frontiers in Plant Science, 2020)
One block for each molecule: values may come before it.

How the values were obtained:
[1] = molecular target: T1, AtAMT1;3 (Arabidopsis thaliana, UniProt Q9SQH9); settings: 1 mM ammonium chloride
T1 construct: gene AMT1-3

[2] = molecular target: T2, ZmAMT1.3 (Zea mays, UniProt B4F978); experiment: two-electrode voltage clamp, Xenopus oocytes, inhibition of ammonium-induced current; assay type: cell-based; settings: read-out: % inhibition at 10 mM
T2 construct: full-length cDNA from maize root RNA in pCI vector, expressed in Xenopus laevis oocytes; no tag stated
T2 sequence (B4F978 1-488): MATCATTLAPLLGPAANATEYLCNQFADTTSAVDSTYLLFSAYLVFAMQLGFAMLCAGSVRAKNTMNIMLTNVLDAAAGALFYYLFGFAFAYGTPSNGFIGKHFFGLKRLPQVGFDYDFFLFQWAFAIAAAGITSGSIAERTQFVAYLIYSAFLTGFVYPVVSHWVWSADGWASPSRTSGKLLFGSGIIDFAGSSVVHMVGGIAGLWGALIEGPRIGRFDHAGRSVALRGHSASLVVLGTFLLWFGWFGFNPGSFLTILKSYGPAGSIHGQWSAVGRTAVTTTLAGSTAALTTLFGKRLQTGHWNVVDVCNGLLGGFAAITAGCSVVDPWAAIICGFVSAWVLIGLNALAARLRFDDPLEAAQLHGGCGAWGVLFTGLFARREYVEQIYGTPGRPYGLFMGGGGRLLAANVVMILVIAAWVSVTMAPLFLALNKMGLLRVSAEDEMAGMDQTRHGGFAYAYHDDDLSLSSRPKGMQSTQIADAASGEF

[3] = molecular target: T3, ZmAMT1.1a (Zea mays, UniProt B4FRK2); experiment: as above; assay type: cell-based; settings: read-out: % inhibition at 10 mM
T3 construct: full-length cDNA from maize root RNA in pCI vector, expressed in Xenopus laevis oocytes; no tag stated
T3 sequence (B4FRK2 1-498): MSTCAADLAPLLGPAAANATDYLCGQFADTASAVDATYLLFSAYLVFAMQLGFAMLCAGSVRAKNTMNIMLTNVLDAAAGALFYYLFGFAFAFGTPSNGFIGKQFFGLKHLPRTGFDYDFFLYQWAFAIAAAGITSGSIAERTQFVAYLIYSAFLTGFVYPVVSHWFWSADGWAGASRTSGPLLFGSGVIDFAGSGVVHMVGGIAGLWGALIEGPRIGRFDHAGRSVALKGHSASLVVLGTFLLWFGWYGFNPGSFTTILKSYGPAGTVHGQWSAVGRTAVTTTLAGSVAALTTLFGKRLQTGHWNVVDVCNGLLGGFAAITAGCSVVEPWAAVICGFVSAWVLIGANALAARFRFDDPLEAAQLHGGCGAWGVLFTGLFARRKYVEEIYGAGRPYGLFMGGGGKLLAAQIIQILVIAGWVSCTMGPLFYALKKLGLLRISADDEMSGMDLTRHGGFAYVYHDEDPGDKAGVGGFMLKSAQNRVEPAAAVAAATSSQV

[4] = molecular target: T4, ZmAMT1.1b (Zea mays, UniProt B4FV06); experiment: as above; assay type: cell-based; settings: read-out: % inhibition at 10 mM
T4 construct: full-length cDNA from maize root RNA in pCI vector, expressed in Xenopus laevis oocytes; no tag stated
T4 sequence (B4FV06 1-489): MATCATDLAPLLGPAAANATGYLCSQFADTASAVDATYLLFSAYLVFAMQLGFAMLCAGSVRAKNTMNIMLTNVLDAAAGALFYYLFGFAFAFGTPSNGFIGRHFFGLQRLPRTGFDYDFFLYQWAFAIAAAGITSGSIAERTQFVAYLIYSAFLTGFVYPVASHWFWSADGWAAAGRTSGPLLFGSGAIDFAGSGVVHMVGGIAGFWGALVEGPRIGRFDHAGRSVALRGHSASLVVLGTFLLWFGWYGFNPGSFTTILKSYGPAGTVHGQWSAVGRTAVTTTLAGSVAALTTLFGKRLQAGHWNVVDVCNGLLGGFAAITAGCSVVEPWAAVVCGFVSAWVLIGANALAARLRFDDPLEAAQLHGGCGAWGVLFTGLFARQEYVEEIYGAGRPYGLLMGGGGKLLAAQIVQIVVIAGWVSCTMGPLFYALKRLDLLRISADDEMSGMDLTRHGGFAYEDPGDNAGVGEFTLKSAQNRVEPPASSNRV

[5] = substrate: N; experiment: cells, lysate or membranes; settings: added as chloride
[6] = substrate: CN; experiment: two-electrode voltage clamp, Xenopus oocytes, Michaelis-Menten fit of induced currents; assay type: cell-based, Zea mays; settings: pH 7.4, -140 mV, added as chloride

T1 sequence (Q9SQH9 whole entry): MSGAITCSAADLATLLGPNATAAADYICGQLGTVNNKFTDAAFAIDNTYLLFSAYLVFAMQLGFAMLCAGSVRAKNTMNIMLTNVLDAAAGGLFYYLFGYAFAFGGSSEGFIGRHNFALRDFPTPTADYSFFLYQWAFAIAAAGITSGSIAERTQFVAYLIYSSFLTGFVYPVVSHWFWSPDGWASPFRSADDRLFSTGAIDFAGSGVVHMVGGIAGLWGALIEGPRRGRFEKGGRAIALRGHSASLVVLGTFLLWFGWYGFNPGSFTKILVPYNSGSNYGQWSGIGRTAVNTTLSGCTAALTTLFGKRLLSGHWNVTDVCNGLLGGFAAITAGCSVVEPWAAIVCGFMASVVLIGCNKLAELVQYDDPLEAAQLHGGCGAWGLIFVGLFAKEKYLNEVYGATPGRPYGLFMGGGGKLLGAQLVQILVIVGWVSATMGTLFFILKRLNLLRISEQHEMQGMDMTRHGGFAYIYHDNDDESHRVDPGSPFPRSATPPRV

Molecule: N [ammonium]
two-electrode voltage clamp, Xenopus oocytes, induced current [1]: Significant ammonium-induced currents were detected in AtAMT1;3-expressing oocytes

inhibition at 10000 µM [2]: 55.4%
inhibition at 10000 µM [3]: 69.9%
inhibition at 10000 µM [4]: 67.5%
Molecule: NC(=O)CC[C@H](N)C(=O)O [glutamine]

B1: ZmAMT1.1a (Zea mays) (protein)
chain: T3 sequence (B4FRK2 1-498)
notes: full-length cDNA from maize root RNA in pCI vector, expressed in Xenopus laevis oocytes; no tag stated
Km ([5]; pH 7.4, -140 mV): 9.9 ± 1.9 µM
Km [6]: 1900 ± 400 µM

B2: ZmAMT1.1b (Zea mays) (protein)
chain: T4 sequence (B4FV06 1-489)
Km ([5]; pH 7.4, -140 mV (potential inferred from Figure 2D range)): 15.6 µM

B3: ZmAMT1.3 (Zea mays) (protein)
chain: T2 sequence (B4F978 1-488)
Km ([5]; pH 7.4, -140 mV (potential inferred from Figure 3D range)): 18.6 ± 2.8 µM
